From article PMC5285354, “Cationic Net Charge and Counter Ion Type as Antimicrobial Activity Determinant Factors of Short Lipopeptides” (Frontiers in Microbiology, 2017)
In brackets after ≈: the same amount, converted by molar mass. Where two headings read alike, the source gives them in different places. Where a SMILES comes first, the peptide text is derived from it. The star is where a group is joined. Octanoyl = CCCCCCCC(=O)*

Assays:
Type in all cases: cell-based
[1] = test system: Candida albicans (ATCC 10231); conditions: ATCC 10231, 48 h
Method: (§1) The minimum inhibitory concentration (MIC), minimum bactericidal concentration (MBC) and minimum fungicidal concentration (MFC) were determined according to the procedure recommended by the Clinical Laboratory Standards Institute (CLSI). The following reference strains were tested: Gram-negative E. coli (ATCC 25922), K. pneumoniae (ATCC 700603), P. vulgaris (PCM 2668), P. aeruginosa (ATCC 9027), Gram-positive S. aureus (ATCC 25923), S. epidermidis (PCM 2118), B. subtilis (ATCC 6633), E. faecalis (ATCC 29212) and fungi C. albicans (ATCC 10231), C. tropicalis (PCM 2681), and A. brasiliensis (ATCC 16404). All the microorganisms were from the Polish Collection of Microorganisms (Wroclaw, Poland). MIC was determined using a microbroth dilution method with Mueller-Hinton (MH) broth for bacteria and Sabouraud Dextrose broth for fungi (Becton Dickinson, Le Pont de Claix, France). An initial inoculum of 10^5 cfu/mL was used for bacteria and 10^3 cfu/mL for fungi. Polypropylene 96-well plates (Kartell, Noviglio, Italy) were incubated for 18 h at 37°C for bacteria and for 48 h at 25°C for the tested fungi. MIC (μg/mL) was taken as the lowest concentration of the lipopeptide, at which the observable growth was inhibited. […] The experiments were performed in triplicate on three different days.

[2] = test system: Pseudomonas aeruginosa (ATCC 9027); conditions: ATCC 9027, TFA salt, triplicate; for MIC Pseudomonas aeruginosa: Mueller-Hinton broth, 10^5 cfu/mL, 18 h 37°C; for MBC Pseudomonas aeruginosa: subculture on Mueller-Hinton II Agar, 24 h 37°C
Method: as §1

[3] = test system: Bacillus subtilis (ATCC 6633)
Method: as §1

[4] = test system: Proteus vulgaris (PCM 2668); conditions: PCM 2668, TFA salt, triplicate; for MIC Proteus vulgaris: Mueller-Hinton broth, 10^5 cfu/mL, 18 h 37°C; for MBC Proteus vulgaris: subculture on Mueller-Hinton II Agar, 24 h 37°C
Method: as §1

[5] = test system: Staphylococcus aureus (ATCC 25923); conditions: ATCC 25923, TFA salt; for MBC Staphylococcus aureus: MIC wells subcultured on Mueller-Hinton II Agar, 24 h 37°C, triplicate; for MIC Staphylococcus aureus: Mueller-Hinton broth, 10^5 cfu/mL, 18 h 37°C, triplicate on three days
Method: as §1

[6] = test system: Aspergillus brasiliensis (ATCC 16404); conditions: ATCC 16404, 48 h
Method: as §1

[7] = test system: Klebsiella pneumoniae (ATCC 700603); conditions: ATCC 700603, TFA salt, triplicate; for MIC Klebsiella pneumoniae: Mueller-Hinton broth, 10^5 cfu/mL, 18 h 37°C; for MBC Klebsiella pneumoniae: subculture on Mueller-Hinton II Agar, 24 h 37°C
Method: as §1

[8] = test system: Staphylococcus epidermidis (PCM 2118)
Method: as §1

[9] = test system: Enterococcus faecalis (ATCC 29212); conditions: ATCC 29212, TFA salt, triplicate; for MIC Enterococcus fecalis: Mueller-Hinton broth, 10^5 cfu/mL, 18 h 37°C; for MBC Enterococcus fecalis: subculture on Mueller-Hinton II Agar, 24 h 37°C
Method: as §1

[10] = test system: Candida tropicalis (PCM 2681); conditions: PCM 2681, 48 h
Method: as §1

[11] = test system: Escherichia coli (ATCC 25922); conditions: ATCC 25922, TFA salt, triplicate; for MIC Escherichia coli: Mueller-Hinton broth, 10^5 cfu/mL, 18 h 37°C; for MBC Escherichia coli: subculture on Mueller-Hinton II Agar, 24 h 37°C
Method: as §1

[12] = ATCC 6633, TFA salt, Mueller-Hinton broth, 10^5 cfu/mL, 18 h 37°C, triplicate
[13] = ATCC 6633, TFA salt, subculture on Mueller-Hinton II Agar, 24 h 37°C, triplicate
[14] = PCM 2118, TFA salt, Mueller-Hinton broth, 10^5 cfu/mL, 18 h 37°C, triplicate
[15] = PCM 2118, TFA salt, subculture on Mueller-Hinton II Agar, 24 h 37°C, triplicate

## CCCCCCCC(=O)N[C@@H](CCCCN)C(N)=O [C8-K-NH2]
[1]
  MFC Candida albicans: 1000 µg/mL (≈ 3.68 mM)
  MIC Candida albicans: 1000 µg/mL (≈ 3.68 mM)
[2]
  MIC Pseudomonas aeruginosa: >2000 µg/mL
  MBC Pseudomonas aeruginosa: >2000 µg/mL
[3]; [12]
  MIC Bacillus subtillis: >1000 µg/mL
[3]; [13]
  MBC Bacillus subtillis: >1000 µg/mL
[4]
  MIC Proteus vulgaris: >2000 µg/mL
  MBC Proteus vulgaris: >2000 µg/mL
[5]
  MBC Staphylococcus aureus: >1000 µg/mL
  MIC Staphylococcus aureus: >1000 µg/mL
[6]
  MFC Aspergillus brasiliensis: 1000 µg/mL (≈ 3.68 mM)
  MIC Aspergillus brasiliensis: 1000 µg/mL (≈ 3.68 mM)
[7]
  MIC Klebsiella pneumoniae: >1000 µg/mL
  MBC Klebsiella pneumoniae: >1000 µg/mL
[8]; [14]
  MIC Staphylococcus epidermidis: >1000 µg/mL
[8]; [15]
  MBC Staphylococcus epidermidis: >1000 µg/mL
[9]
  MIC Enterococcus fecalis: >1000 µg/mL
  MBC Enterococcus fecalis: >1000 µg/mL
[10]
  MFC Candida tropicalis: 2000 µg/mL (≈ 7.37 mM)
  MIC Candida tropicalis: 1000 µg/mL (≈ 3.68 mM)
[11]
  MIC Escherichia coli: >1000 µg/mL
  MBC Escherichia coli: >1000 µg/mL

## CCCCCCCC(=O)N[C@@H](CCCCN)C(=O)NCC(N)=O [C8-KG-NH2] (Octanoyl-Lys-Gly-NH2)
[1]
  MFC Candida albicans: 2000 µg/mL (≈ 6.09 mM)
  MIC Candida albicans: 2000 µg/mL (≈ 6.09 mM)
[2]
  MIC Pseudomonas aeruginosa: >2000 µg/mL
  MBC Pseudomonas aeruginosa: >2000 µg/mL
[3]; [12]
  MIC Bacillus subtillis: >2000 µg/mL
[3]; [13]
  MBC Bacillus subtillis: >2000 µg/mL
[4]
  MIC Proteus vulgaris: >2000 µg/mL
  MBC Proteus vulgaris: >2000 µg/mL
[5]
  MBC Staphylococcus aureus: >2000 µg/mL
  MIC Staphylococcus aureus: >2000 µg/mL
[6]
  MFC Aspergillus brasiliensis: 2000 µg/mL (≈ 6.09 mM)
  MIC Aspergillus brasiliensis: 2000 µg/mL (≈ 6.09 mM)
[7]
  MIC Klebsiella pneumoniae: >2000 µg/mL
  MBC Klebsiella pneumoniae: >2000 µg/mL
[8]; [14]
  MIC Staphylococcus epidermidis: >2000 µg/mL
[8]; [15]
  MBC Staphylococcus epidermidis: >2000 µg/mL
[9]
  MIC Enterococcus fecalis: >2000 µg/mL
  MBC Enterococcus fecalis: >2000 µg/mL
[10]
  MFC Candida tropicalis: 2000 µg/mL (≈ 6.09 mM)
  MIC Candida tropicalis: 2000 µg/mL (≈ 6.09 mM)
[11]
  MIC Escherichia coli: >2000 µg/mL
  MBC Escherichia coli: >2000 µg/mL

## CCCCCCCC(=O)N[C@@H](CCCCN)C(=O)NCC(=O)N[C@@H](CCCCN)C(N)=O [C8-KGK-NH2] (Octanoyl-Lys-Gly-Lys-NH2)
[1]
  MFC Candida albicans: 2000 µg/mL (≈ 4.38 mM)
  MIC Candida albicans: 2000 µg/mL (≈ 4.38 mM)
[2]
  MIC Pseudomonas aeruginosa: >2000 µg/mL
  MBC Pseudomonas aeruginosa: >2000 µg/mL
[3]; ATCC 6633, 18 h
  MIC Bacillus subtillis: 512 µg/mL (≈ 1.12 mM)
[3]; ATCC 6633, 24 h
  MBC Bacillus subtillis: 1000 µg/mL (≈ 2.19 mM)
[4]
  MIC Proteus vulgaris: >2000 µg/mL
  MBC Proteus vulgaris: >2000 µg/mL
[5]
  MBC Staphylococcus aureus: >2000 µg/mL
  MIC Staphylococcus aureus: >2000 µg/mL
[6]
  MFC Aspergillus brasiliensis: 2000 µg/mL (≈ 4.38 mM)
  MIC Aspergillus brasiliensis: 2000 µg/mL (≈ 4.38 mM)
[7]
  MIC Klebsiella pneumoniae: >2000 µg/mL
  MBC Klebsiella pneumoniae: >2000 µg/mL
[8]; PCM 2118, 18 h
  MIC Staphylococcus epidermidis: 256 µg/mL (≈ 0.561 mM)
[8]; PCM 2118, 24 h
  MBC Staphylococcus epidermidis: 1000 µg/mL (≈ 2.19 mM)
[9]
  MIC Enterococcus fecalis: >2000 µg/mL
  MBC Enterococcus fecalis: >2000 µg/mL
[10]
  MFC Candida tropicalis: 2000 µg/mL (≈ 4.38 mM)
  MIC Candida tropicalis: 2000 µg/mL (≈ 4.38 mM)
[11]
  MIC Escherichia coli: >2000 µg/mL
  MBC Escherichia coli: >2000 µg/mL

## CCCCCCCC(=O)N[C@@H](CCCCN)C(=O)NCC(=O)N[C@@H](CCCCN)C(=O)NCC(N)=O [C8-KGKG-NH2] (Octanoyl-KGKG-NH2)
[1]
  MFC Candida albicans: 2000 µg/mL (≈ 3.89 mM)
  MIC Candida albicans: 2000 µg/mL (≈ 3.89 mM)
[2]
  MIC Pseudomonas aeruginosa: >2000 µg/mL
  MBC Pseudomonas aeruginosa: >2000 µg/mL
[3]; [12]
  MIC Bacillus subtillis: >2000 µg/mL
[3]; [13]
  MBC Bacillus subtillis: >2000 µg/mL
[4]
  MIC Proteus vulgaris: >2000 µg/mL
  MBC Proteus vulgaris: >2000 µg/mL
[5]
  MBC Staphylococcus aureus: >2000 µg/mL
  MIC Staphylococcus aureus: >2000 µg/mL
[6]
  MFC Aspergillus brasiliensis: 2000 µg/mL (≈ 3.89 mM)
  MIC Aspergillus brasiliensis: 2000 µg/mL (≈ 3.89 mM)
[7]
  MIC Klebsiella pneumoniae: >2000 µg/mL
  MBC Klebsiella pneumoniae: >2000 µg/mL
[8]; [14]
  MIC Staphylococcus epidermidis: >2000 µg/mL
[8]; [15]
  MBC Staphylococcus epidermidis: >2000 µg/mL
[9]
  MIC Enterococcus fecalis: >2000 µg/mL
  MBC Enterococcus fecalis: >2000 µg/mL
[10]
  MFC Candida tropicalis: 2000 µg/mL (≈ 3.89 mM)
  MIC Candida tropicalis: 2000 µg/mL (≈ 3.89 mM)
[11]
  MIC Escherichia coli: >2000 µg/mL
  MBC Escherichia coli: >2000 µg/mL

## CCCCCCCC(=O)N[C@@H](CCCCN)C(=O)N[C@@H](CCCCN)C(N)=O [C8-KK-NH2]
[1]
  MFC Candida albicans: 1000 µg/mL (≈ 2.5 mM)
  MIC Candida albicans: 1000 µg/mL (≈ 2.5 mM)
[2]
  MIC Pseudomonas aeruginosa: >2000 µg/mL
  MBC Pseudomonas aeruginosa: >2000 µg/mL
[3]; [12]
  MIC Bacillus subtillis: >1000 µg/mL
[3]; [13]
  MBC Bacillus subtillis: >1000 µg/mL
[4]
  MIC Proteus vulgaris: >2000 µg/mL
  MBC Proteus vulgaris: >2000 µg/mL
[5]
  MBC Staphylococcus aureus: >1000 µg/mL
  MIC Staphylococcus aureus: >1000 µg/mL
[6]
  MFC Aspergillus brasiliensis: 1000 µg/mL (≈ 2.5 mM)
  MIC Aspergillus brasiliensis: 1000 µg/mL (≈ 2.5 mM)
[7]
  MIC Klebsiella pneumoniae: >1000 µg/mL
  MBC Klebsiella pneumoniae: >1000 µg/mL
[8]; [14]
  MIC Staphylococcus epidermidis: >1000 µg/mL
[8]; [15]
  MBC Staphylococcus epidermidis: >1000 µg/mL
[9]
  MIC Enterococcus fecalis: >1000 µg/mL
  MBC Enterococcus fecalis: >1000 µg/mL
[10]
  MFC Candida tropicalis: 1000 µg/mL (≈ 2.5 mM)
  MIC Candida tropicalis: 1000 µg/mL (≈ 2.5 mM)
[11]
  MIC Escherichia coli: >1000 µg/mL
  MBC Escherichia coli: >1000 µg/mL

## CCCCCCCC(=O)N[C@@H](CCCCN)C(=O)N[C@@H](CCCCN)C(=O)N[C@@H](CCCCN)C(N)=O [C8-KKK-NH2]
[1]
  MFC Candida albicans: 2000 µg/mL (≈ 3.79 mM)
  MIC Candida albicans: 2000 µg/mL (≈ 3.79 mM)
[2]
  MIC Pseudomonas aeruginosa: >2000 µg/mL
  MBC Pseudomonas aeruginosa: >2000 µg/mL
[3]; ATCC 6633, 18 h
  MIC Bacillus subtillis: 1000 µg/mL (≈ 1.89 mM)
[3]; ATCC 6633, 24 h
  MBC Bacillus subtillis: 1000 µg/mL (≈ 1.89 mM)
[4]
  MIC Proteus vulgaris: >2000 µg/mL
  MBC Proteus vulgaris: >2000 µg/mL
[5]
  MBC Staphylococcus aureus: >2000 µg/mL
  MIC Staphylococcus aureus: >2000 µg/mL
[6]
  MFC Aspergillus brasiliensis: 2000 µg/mL (≈ 3.79 mM)
  MIC Aspergillus brasiliensis: 2000 µg/mL (≈ 3.79 mM)
[7]
  MIC Klebsiella pneumoniae: >2000 µg/mL
  MBC Klebsiella pneumoniae: >2000 µg/mL
[8]; PCM 2118, 18 h
  MIC Staphylococcus epidermidis: 256 µg/mL (≈ 0.485 mM)
[8]; PCM 2118, 24 h
  MBC Staphylococcus epidermidis: 512 µg/mL (≈ 0.97 mM)
[9]
  MIC Enterococcus fecalis: >2000 µg/mL
  MBC Enterococcus fecalis: >2000 µg/mL
[10]
  MFC Candida tropicalis: 2000 µg/mL (≈ 3.79 mM)
  MIC Candida tropicalis: 2000 µg/mL (≈ 3.79 mM)
[11]
  MIC Escherichia coli: >2000 µg/mL
  MBC Escherichia coli: >2000 µg/mL
